For series [1], the target named is human MCH-1 receptor (Homo sapiens (Human), UniProt Q99705). Description: Binding Assay for Human Melanin-Concentrating Hormone (MCH-1) Receptor (radioligand displacement, CHO-K1 membranes). To be noted: membranes from CHO-K1 cells expressing human MCH1 receptor, [3H]-labeled radioligand, Ki from IC50 by Cheng Prusoff. On the procedure: Evaluation of the affinity of compounds for the human MCH-1 receptor was accomplished using 4-(3,4,5-tritritiumbenzyloxy)-1-(1-(2-(pyrrolidin-1-yl)ethyl)-1H-indazol-5-yl)pyridin-2(1H)-one and membranes prepared from stable CHO-K1 cells expressing the human MCH1 receptor obtained from Euroscreen (Batch 1138). Cell membrane homogenates (8.92 μg protein) were incubated for 60 min at 25° C. with […] of the [^3H]-labeled compound in the absence or presence of the test compound in 50 mM Tris-HCl buffer, pH 7.4. Nonspecific binding was determined in the presence of 50 μM 1-(5-(4-cyanophenyl)bicyclo[3.1.0]hexan-2-yl)-3-(4-fluoro-3-(trifluoromethyl)phenyl)-1-(3-(4-methylpiperazin-1-yl)propyl)urea. Following incubation, the samples were filtered rapidly under vacuum through Skatron 11731 filters, pre-soaked in 0.5% polyethylenimine, and washed with ice-cold 50 mM Tris-HCl buffer, pH 7.4, (wash setting 9,9,0) using a Skatron cell harvester. The filters were counted for radioactivity in a liquid scintillation counter (Tri-Carb 2100TR, Packard) using a scintillation cocktail (Ultima Gold MV, Perkin Elmer).
The results are expressed as a percent inhibition of the control radioligand specific binding. The IC50 value (concentration causing a half-maximal inhibition of control specific binding) and Hill coefficient (nH) were determined by non-linear regression analysis of the competition curve using Hill equation curve fitting. The inhibition constant (Ki) was calculated from the Cheng Prusoff equation: (Ki=IC50/(1+(L/KD)), where L=concentration of radioligand in the assay, and KD=affinity of the radioligand for the receptor.

Molecules are shown by their SMILES. Structures can show the parent of a compound that is named as a salt. Where two headings read alike, the source gives them in different places.

human MCH-1 receptor, sequence (Q99705 whole entry): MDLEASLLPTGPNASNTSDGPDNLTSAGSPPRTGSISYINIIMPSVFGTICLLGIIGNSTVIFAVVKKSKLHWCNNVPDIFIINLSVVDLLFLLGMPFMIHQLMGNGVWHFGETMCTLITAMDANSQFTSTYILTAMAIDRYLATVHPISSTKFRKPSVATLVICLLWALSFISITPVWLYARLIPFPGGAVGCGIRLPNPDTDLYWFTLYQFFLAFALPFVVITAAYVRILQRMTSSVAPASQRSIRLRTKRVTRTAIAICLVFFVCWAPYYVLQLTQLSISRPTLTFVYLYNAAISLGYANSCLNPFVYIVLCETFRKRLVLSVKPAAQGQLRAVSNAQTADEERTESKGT

As to `Cn1c2c(c3ccc(-n4ccc(-c5ccc(C(F)(F)F)nc5)cc4=O)cc31)C1CCC(C2)N1` (stereo not drawn) (as salt: hydrochloride) [Example 5, 1-(5-Methyl-5,6,7,8,9,10-hexahydro-7,10-iminocyclohept[b]indol-3-yl)-4-(6-(trifluoromethyl)pyridin-3-yl)pyridin-2(1H)-one dihydrochloride], the melting point was 228 to 233 °C. Still for that read-out and setting: to `Cn1c2c(c3ccc(-n4ccc(OCc5ccc(F)cn5)cc4=O)cc31)C1CCC(C2)N1` (stereo not drawn) (as salt: hydrochloride) [Example 6, 4-((5-Fluoropyridin-2-yl)methoxy)-1-(5-methyl-5,6,7,8,9,10-hexahydro-7,10-iminocyclohept[b]indol-3-yl)pyridin-2(1H)-one dihydrochloride] belongs 180 to 190 °C. The same measure, in the same setting: for `O=c1cc(OCc2ccc(F)cn2)ccn1-c1ccc2c3c([nH]c2c1)CC1CCC3N1` (stereo not drawn) (as salt: hydrochloride) [Example 9, 4-((5-Fluoropyridin-2-yl)methoxy)-1-(5,6,7,8,9,10-hexahydro-7,10-iminocyclohept[b]indol-3-yl)pyridin-2(1H)-one dihydrochloride] the value was 205 to 211 °C (dec.); for `CC(=O)N1C2CCC1c1c([nH]c3cc(-n4ccc(OCc5ccccc5)cc4=O)ccc13)C2` (single isomer, unassigned; enantiomer a) (as salt: hydrochloride) [Example 30, 1-(11-Acetyl-5,6,7,8,9,10-hexahydro-7,10-iminocyclohept[b]indol-3-yl)-4-(benzyloxy)pyridin-2(1H)-one hydrochloride (Enantiomer A)], 140 to 170 °C. `Cl.O=c1cc(OCc2ccccc2)ccn1-c1ccc2c3c([nH]c2c1)CC1CCC3N1` (single isomer, unassigned; enantiomer a) [Example 21, (+)-4-(Benzyloxy)-1-(5,6,7,8,9,10-hexahydro-7,10-iminocyclohept[b]indol-3-yl)pyridin-2(1H)-one hydrochloride (Enantiomer A)] yielded a melting point of 211 to 212 °C. The molecule also registered a Ki in series [1] (MCH-1 Ki (nM)) of 39 nM. Taken in the same sequence, the figures for `Cl.O=c1cc(OCc2ccccc2)ccn1-c1ccc2c3c([nH]c2c1)CC1CCC3N1` (single isomer, unassigned; enantiomer b) [Example 20, (−)-4-(Benzyloxy)-1-(5,6,7,8,9,10-hexahydro-7,10-iminocyclohept[b]indol-3-yl)pyridin-2(1H)-one hydrochloride (Enantiomer B)] were 211 to 217 °C and 9.3 nM. `Cl.Cn1c2c(c3ccc(-n4ccc(-c5ccc(C(F)(F)F)nn5)cc4=O)cc31)C1CCC(C2)N1` (stereo not drawn) [Example 3, 1-(5-Methyl-5,6,7,8,9,10-hexahydro-7,10-iminocyclohept[b]indol-3-yl)-4-(6-(trifluoromethyl)pyridazin-3-yl)pyridin-2(1H)-one hydrochloride]: the melting point lay in the range of 235 to 245 °C. Moreover, the Ki in series [1] (read-out: MCH-1 Ki) was determined as 24.4 nM. As to `Cl.O=c1cc(OCc2ccccc2)ccn1-c1ccc2c3c([nH]c2c1)CC1CCC3N1` (stereo not drawn) [Example 8, 4-(Benzyloxy)-1-(5,6,7,8,9,10-hexahydro-7,10-iminocyclohept[b]indol-3-yl)pyridin-2(1H)-one hydrochloride], the melting point lay within 209 to 214 °C. The Ki in series [1] (read-out: MCH-1 Ki) is 9.8 nM. Taken in the same sequence, the figures for `Cl.O=c1cc(-c2ccc(C(F)(F)F)nc2)ccn1-c1ccc2c3c([nH]c2c1)CC1CCC3N1` (stereo not drawn) [Example 10, 1-(5,6,7,8,9,10-Hexahydro-7,10-iminocyclohept[b]indol-3-yl)-4-(6-(trifluoromethyl)pyridin-3-yl)pyridin-2(1H)-one hydrochloride] were 215 to 235 °C (dec.) and 22.7 nM. In the case of `CCN1C2CCCC1c1c(n(C)c3cc(-n4ccc(OCc5ccccc5)cc4=O)ccc13)C2` (stereo not drawn) [Example 32, 4-(Benzyloxy)-1-(12-ethyl-5-methyl-6,7,8,9,10,11-hexahydro-7,11-imino-5H-cyclooct[b]indol-3-yl)pyridin-2(1H)-one hydrochloride], the Ki in series [1] (read-out: MCH-1 Ki) amounted to 15 nM. The same measure, in the same setting: to `Cn1c2c(c3ccc(-n4ccc(OCc5ccccc5)cc4=O)nc31)C1CCC(C2)N1` (stereo not drawn) [Example 39, 4-(Benzyloxy)-1-(10-methyl-5,6,7,8,9,10-hexahydro-5,8-iminocyclohepta[4,5]pyrrolo[2,3-b]pyridin-2-yl)pyridin-2(1H)-one hydrochloride] belongs 21 nM; to `CN1C2CCC1c1c(n(C)c3nc(-n4ccc(OCc5ccccc5)cc4=O)ccc13)C2` (stereo not drawn) [Example 42, 4-(Benzyloxy)-1-(10,11-dimethyl-5,6,7,8,9,10-hexahydro-5,8-iminocyclohepta[4,5]pyrrolo[2,3-b]pyridin-2-yl)pyridin-2(1H)-one hydrochloride], 27 nM. The same measure, in the same setting: to `Cn1c2c(c3ccc(-n4ccc(OCc5ccc(F)cn5)cc4=O)nc31)C1CCC(C2)N1` (stereo not drawn) [Example 43, 4-((5-Fluoropyridin-2-yl)methoxy)-1-(10-methyl-5,6,7,8,9,10-hexahydro-5,8-iminocyclohepta[4,5]pyrrolo[2,3-b]pyridin-2-yl)pyridin-2(1H)-one hydrochloride] belongs 38 nM; to `Cn1c2c(c3ccc(-n4ccc(-c5ccc(C(F)(F)F)nc5)cc4=O)nc31)C1CCC(C2)N1` (stereo not drawn) [Example 44, 1-(10-Methyl-5,6,7,8,9,10-hexahydro-5,8-iminocyclohepta[4,5]pyrrolo[2,3-b]pyridin-2-yl)-4-(6-(trifluoromethyl)pyridin-3-yl)pyridin-2(1H)-one hydrochloride], 110 nM; to `Cn1c2c(c3ccc(-n4ccc(OCc5ccc(F)cc5F)cc4=O)nc31)C1CCC(C2)N1` (stereo not drawn) [Example 45, 4-(2,4-Difluorobenzyloxy)-1-(10-methyl-5,6,7,8,9,10-hexahydro-5,8-iminocyclohepta[4,5]pyrrolo[2,3-b]pyridin-2-yl)pyridin-2(1H)-one hydrochloride], 26 nM. Same read-out and setting: for `Cn1c2c(c3ccc(N4CCN(CCc5ccc(Cl)cc5)CC4=O)nc31)C1CCC(C2)N1` (stereo not drawn) [Example 46, 4-(4-Chlorophenethyl)-1-(10-methyl-5,6,7,8,9,10-hexahydro-5,8-iminocyclohepta[4,5]pyrrolo[2,3-b]pyridin-2-yl)-piperazin-2-one dihydrochloride] the value was 99 nM; for `Cn1c2c(c3ccc(-n4ccc(OCc5ccc(Cl)cc5F)cc4=O)nc31)C1CCC(C2)N1` (stereo not drawn) [Example 47, 4-(4-Chloro-2-fluorobenzyloxy)-1-(10-methyl-5,6,7,8,9,10-hexahydro-5,8-iminocyclohepta[4,5]pyrrolo[2,3-b]pyridin-2-yl)pyridin-2(1H)-one hydrochloride], 14 nM.

For the molecule `Cn1c2c(c3ccc(-n4ccc(OCc5ccc(Cl)cc5Cl)cc4=O)nc31)C1CCC(C2)N1` (stereo not drawn) [Example 48, 4-(2,4-Dichlorobenzyloxy)-1-(10-methyl-5,6,7,8,9,10-hexahydro-5,8-iminocyclohepta[4,5]pyrrolo[2,3-b]pyridin-2-yl)pyridin-2(1H)-one hydrochloride], the Ki in series [1] (read-out: MCH-1 Ki) was determined as 28 nM.

In the case of `Cn1c2c(c3ccc(-n4ccc(-c5ccc(C(F)(F)F)cc5)cc4=O)nc31)C1CCC(C2)N1` (stereo not drawn) [Example 50, 1-(10-Methyl-5,6,7,8,9,10-hexahydro-5,8-iminocyclohepta[4,5]pyrrolo[2,3-b]pyridin-2-yl)-4-(4-(trifluoromethyl)phenyl)pyridin-2(1H)-one hydrochloride], the inhibitory constant (Ki) in series [1] (read-out: MCH-1 Ki) came out at 19 nM.

By melting point is commonly meant the temperature of the solid-liquid transition. In general, Ki refers to the dissociation constant of the complex between target and ligand, obtained from inhibition or displacement.

For the origin of these results see US8629158B2, “Azabicycloalkane-indole and azabicycloalkane-pyrrolo-pyridine MCH-1 antagonists, methods of making, and use thereof” (Albany Molecular Research, Inc., priority 2009, dated 2014).
